According to US20180243273A1, “Composition for Intravesical Administration for Treating Bladder Pain” (priority 2017, published 2018):

What was measured:
[1] = Preliminary stability study of API intravesical solution; type: physicochemical; details: vitamin E TPGS 2%, API 150 μg/mL, no Asc., treated with nitrogen
Description: Two dose strengths were specified: 40 μg/mL and 150 μg/mL API. These concentrations were defined in order to stay below 80% of the saturated solubility values obtained during previous experiments. To enable dissolution of the API, 0.5 wt.-% and 2 wt.-% vitamin E TPGS were used for 40 μg/mL and 150 μg/mL API, respectively (24 h stirring). The compositions were treated with nitrogen and stored at 5° C., 25° C. and 40° C.

[2] = Solubility and impurities of API with solubility enhancing excipients in citrate or phosphate buffer pH 4.5; type: physicochemical; details: for solubility: thermodynamic from solid
Description: The solubility of the API was assessed in different buffers together with different excipients. Batches containing different amounts of non-micronized API (i.e. 1 mg, 4 mg, 10 mg or 15 mg) in 100 g buffer were manufactured in order to have saturated solutions. Two different buffers were chosen (citrate buffer and phosphate buffer). […] In order to improve the poor solubility of the API, different solubility enhancing excipients were incorporated in the buffer systems in a concentration range of 0.1-2 wt.-%:
First, buffers were prepared according to Ph. Eur. After pH adjustment, the corresponding excipient was dissolved in the buffer. 1 mg of the API was added to the excipient containing buffer (i.e. 100 g) and stirred. If the API was dissolved completely, another 9 mg were added to a final amount of 10 mg API in […] buffer/excipient mixture. The resulting compositions were stirred overnight prior to filtration through a 0.45 μm filter and analysis and contained 1 mg or 10 mg API, respectively. The following compositions were prepared and the following solubility values were achieved: […]

With CN(C)[C@]1(c2cccc(F)c2)CC[C@]2(CC1)c1[nH]c3ccccc3c1CCN2C(=O)/C=C/c1ccccc1 [API, cis-(E)-4-(3-fluorophenyl)-2′,3′,4′,9′-tetrahydro-N,N-dimethyl-2′-(1-oxo-3-phenyl-2-propenyl)-spiro[cyclohexane-1,1′[1H]-pyrido[3,4-b]indol]-4-amine] the Assay ([1]; 25° C., 3 m) was 61.96 % L.S, the Impurities ([1]; 25° C., 3 m) was 1.37 % (a/a) and the Assay ([1]; 40° C., 1 m) was 61.37 % L.S. For the same molecule, the Impurities ([1]; 40° C., 1 m) was 1.84 % (a/a), the Assay ([1]; 40° C., 2 w) was 61.71 % L.S and the Impurities ([1]; 40° C., 2 w) was 1.16 % (a/a). For the same molecule, the Assay ([1]; 40° C., 3 m) was 59.41 % L.S, the Impurities ([1]; 40° C., 3 m) was 4.09 % (a/a) and the Assay ([1]; t = 0) was 61.73 % L.S. The Impurities ([1]; t = 0) was 0.44 % (a/a), the Sum of impurities ([2]; citrate buffer pH 4.5, 1 wt.-% Cremophor ® RH 40, 1 mg API in 100 g buffer) was 0.92 % (a/a) and the Sum of impurities ([2]; citrate buffer pH 4.5, 1 wt.-% Gelucire ® 44/14, 10 mg API in 100 g buffer) was 25.91 % (a/a). The Sum of impurities ([2]; citrate buffer pH 4.5, 1 wt.-% Labrasol ®, 10 mg API in 100 g buffer) was 19.81 % (a/a), the Sum of impurities ([2]; citrate buffer pH 4.5, 1 wt.-% PEG 400, 10 mg API in 100 g buffer) was 0 % (a/a) and the Sum of impurities ([2]; citrate buffer pH 4.5, 1 wt.-% Propylene glycol, 10 mg API in 100 g buffer) was 0 % (a/a). For the same molecule, the Sum of impurities ([2]; citrate buffer pH 4.5, 1 wt.-% SLS, 1 mg API in 100 g buffer) was 5.52 % (a/a), the Sum of impurities ([2]; citrate buffer pH 4.5, 1 wt.-% SLS, 10 mg API in 100 g buffer) was 3.47 % (a/a) and the Sum of impurities ([2]; citrate buffer pH 4.5, 1 wt.-% Solutol ® HS 15, 1 mg API in 100 g buffer) was 0.53 % (a/a). The Sum of impurities ([2]; citrate buffer pH 4.5, 1 wt.-% Tween ® 80, 1 mg API in 100 g buffer) was 1.1 % (a/a), the Sum of impurities ([2]; citrate buffer pH 4.5, 1 wt.-% vitamin E TPGS, 10 mg API in 100 g buffer) was 5.71 % (a/a) and the solubility ([2]; citrate buffer, pH 4.5, aqueous with cosolvent or surfactant or cyclodextrin, citrate buffer pH 4.5, 1 wt.-% Cremophor ® RH 40, 1 mg API in 100 g buffer) was 7.18 µg/mL. The solubility ([2]; citrate buffer, pH 4.5, aqueous with cosolvent or surfactant or cyclodextrin, citrate buffer pH 4.5, 1 wt.-% Gelucire ® 44/14, 10 mg API in 100 g buffer) was 34.9 µg/mL, the solubility ([2]; citrate buffer, pH 4.5, aqueous with cosolvent or surfactant or cyclodextrin, citrate buffer pH 4.5, 1 wt.-% Labrasol ®, 10 mg API in 100 g buffer) was 12.1 µg/mL and the solubility ([2]; citrate buffer, pH 4.5, aqueous with cosolvent or surfactant or cyclodextrin, citrate buffer pH 4.5, 1 wt.-% SLS, 1 mg API in 100 g buffer) was 79.5 µg/mL. For the same molecule, the solubility ([2]; citrate buffer, pH 4.5, aqueous with cosolvent or surfactant or cyclodextrin, citrate buffer pH 4.5, 1 wt.-% SLS, 10 mg API in 100 g buffer) was 8.19 µg/mL, the solubility ([2]; citrate buffer, pH 4.5, aqueous with cosolvent or surfactant or cyclodextrin, citrate buffer pH 4.5, 1 wt.-% Solutol ® HS 15, 1 mg API in 100 g buffer) was 7.95 µg/mL and the solubility ([2]; citrate buffer, pH 4.5, aqueous with cosolvent or surfactant or cyclodextrin, citrate buffer pH 4.5, 1 wt.-% Tween ® 80, 1 mg API in 100 g buffer) was 7.93 µg/mL. For the same molecule, the solubility ([2]; citrate buffer, pH 4.5, aqueous with cosolvent or surfactant or cyclodextrin, citrate buffer pH 4.5, 1 wt.-% vitamin E TPGS, 10 mg API in 100 g buffer) was 76.4 µg/mL, the Sum of impurities ([2]; phosphate buffer pH 4.5, 1 wt.-% Cremophor ® RH 40, 1 mg API in 100 g buffer) was 0.2 % (a/a) and the Sum of impurities ([2]; phosphate buffer pH 4.5, 1 wt.-% Gelucire ® 44/14, 1 mg API in 100 g buffer) was 17.48 % (a/a). For the same molecule, the Sum of impurities ([2]; phosphate buffer pH 4.5, 1 wt.-% Labrasol ®, 1 mg API in 100 g buffer) was 5.91 % (a/a), the Sum of impurities ([2]; phosphate buffer pH 4.5, 1 wt.-% PEG 400, 1 mg API in 100 g buffer) was 11.7 % (a/a) and the Sum of impurities ([2]; phosphate buffer pH 4.5, 1 wt.-% Propylene glycol, 1 mg API in 100 g buffer) was 38.22 % (a/a). The Sum of impurities ([2]; phosphate buffer pH 4.5, 1 wt.-% SLS, 1 mg API in 100 g buffer) was 22.55 % (a/a), the Sum of impurities ([2]; phosphate buffer pH 4.5, 1 wt.-% Solutol ® HS 15, 1 mg API in 100 g buffer) was 0.2 % (a/a) and the Sum of impurities ([2]; phosphate buffer pH 4.5, 1 wt.-% Tween ® 80, 1 mg API in 100 g buffer) was 0.52 % (a/a). The Sum of impurities ([2]; phosphate buffer pH 4.5, 1 wt.-% vitamin E TPGS, 10 mg API in 100 g buffer) was 1.87 % (a/a), the solubility ([2]; phosphate buffer, pH 4.5, aqueous buffer, phosphate buffer pH 4.5, 1 wt.-% PEG 400, 1 mg API in 100 g buffer) was 0.83 µg/mL and the solubility ([2]; phosphate buffer, pH 4.5, aqueous buffer, phosphate buffer pH 4.5, 1 wt.-% Propylene glycol, 1 mg API in 100 g buffer) was 0.04 µg/mL. For the same molecule, the solubility ([2]; phosphate buffer, pH 4.5, aqueous with cosolvent or surfactant or cyclodextrin, phosphate buffer pH 4.5, 1 wt.-% Cremophor ® RH 40, 1 mg API in 100 g buffer) was 7.67 µg/mL, the solubility ([2]; phosphate buffer, pH 4.5, aqueous with cosolvent or surfactant or cyclodextrin, phosphate buffer pH 4.5, 1 wt.-% Gelucire ® 44/14, 1 mg API in 100 g buffer) was 53.5 µg/mL and the solubility ([2]; phosphate buffer, pH 4.5, aqueous with cosolvent or surfactant or cyclodextrin, phosphate buffer pH 4.5, 1 wt.-% Labrasol ®, 1 mg API in 100 g buffer) was 45.8 µg/mL. For the same molecule, the solubility ([2]; phosphate buffer, pH 4.5, aqueous with cosolvent or surfactant or cyclodextrin, phosphate buffer pH 4.5, 1 wt.-% SLS, 1 mg API in 100 g buffer) was 1.68 µg/mL, the solubility ([2]; phosphate buffer, pH 4.5, aqueous with cosolvent or surfactant or cyclodextrin, phosphate buffer pH 4.5, 1 wt.-% Solutol ® HS 15, 1 mg API in 100 g buffer) was 6.71 µg/mL and the solubility ([2]; phosphate buffer, pH 4.5, aqueous with cosolvent or surfactant or cyclodextrin, phosphate buffer pH 4.5, 1 wt.-% Tween ® 80, 1 mg API in 100 g buffer) was 8.91 µg/mL. For the same molecule, the solubility ([2]; phosphate buffer, pH 4.5, aqueous with cosolvent or surfactant or cyclodextrin, phosphate buffer pH 4.5, 1 wt.-% vitamin E TPGS, 10 mg API in 100 g buffer) was 256 µg/mL.
